Legend:
[1] = system: weeds; experiment: Glasshouse weed control, HST inhibitors alone and with A22, pre-emergence; assay type: in vivo; conditions: 336 h, 14 DAT; for pest or weed control at 15.625 g/ha: HST inhibitor rate 15.625 g/ha; for pest or weed control at 62.5 g/ha: HST inhibitor rate 62.5 g/ha; for pest or weed control at 250 g/ha: HST inhibitor rate 250 g/ha
Procedure, shortened: (§1)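 Weeds grown in glasshouse trays (24-27 C day, 18-21 C night, ~15 h photoperiod) and track-sprayed in 0.2% X77 at […], pre-emergence or post-emergence at about 7-12 d. HPPD inhibitor A22 applied at 2 g/ha alone or mixed with HST herbicides. Damage scored 0–100% at 14 DAT; synergy calculated by Colby formula.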

[2] = molecular target: T1, Arabidopsis HST (Arabidopsis thaliana, UniProt Q1ACB3); experiment: HST total extraction (non TLC) assay, recombinant Arabidopsis HST from insect cells; assay type: biochemical
T1 construct: GST (factor Xa cleavage site) (N); made in house; host or cells: Sf9 insect cells (baculovirus, pAcG3X), membrane fraction
T1 sequence (Q1ACB3 70-386): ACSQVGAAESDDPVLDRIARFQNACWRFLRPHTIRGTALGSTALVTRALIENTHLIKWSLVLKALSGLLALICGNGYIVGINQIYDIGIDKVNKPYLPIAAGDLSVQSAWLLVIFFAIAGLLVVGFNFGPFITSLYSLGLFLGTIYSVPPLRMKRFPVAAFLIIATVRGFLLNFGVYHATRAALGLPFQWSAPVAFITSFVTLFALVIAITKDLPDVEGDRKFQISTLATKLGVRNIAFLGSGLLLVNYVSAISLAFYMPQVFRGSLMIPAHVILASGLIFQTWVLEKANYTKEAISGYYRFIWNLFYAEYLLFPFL

[3] = system: weeds; experiment: Glasshouse weed control, HST inhibitors alone and with A22, post-emergence; assay type: in vivo; conditions: 336 h, 14 DAT, single replicate, read-out: % control score, Obs; for pest or weed control at 15.625 g/ha: 15.625 g/ha alone; for pest or weed control at 62.5 g/ha: 62.5 g/ha alone; for pest or weed control at 250 g/ha: 250 g/ha alone
Procedure, shortened: as §1

[4] = BRAPL, read-out: BRAPL Obs, % control score
[5] = PANMI, read-out: PANMI Obs, % control score
[6] = SIDSP, read-out: SIDSP Obs, % control score
[7] = Digitaria sanguinalis, DIGSA, read-out: DIGSA Obs, % control score
[8] = Echinochloa crus-galli, ECHCG, read-out: ECHCG Obs, % control score
[9] = Setaria faberi, SETFA, read-out: SETFA Obs, % control score

| SMILES | pest or weed control at 15.625 g/ha [1, 4] [%] | pest or weed control at 62.5 g/ha [1, 4] [%] | pest or weed control at 250 g/ha [1, 4] [%] | pest or weed control at 15.625 g/ha [1, 5] [%] | pest or weed control at 62.5 g/ha [1, 5] [%] | pest or weed control at 250 g/ha [1, 5] [%] | pest or weed control at 15.625 g/ha [1, 6] [%] | pest or weed control at 62.5 g/ha [1, 6] [%] | pest or weed control at 250 g/ha [1, 6] [%] | pest or weed control at 15.625 g/ha [1, 7] [%] | pest or weed control at 62.5 g/ha [1, 7] [%] | pest or weed control at 250 g/ha [1, 7] [%] | pest or weed control at 15.625 g/ha [1, 8] [%] | pest or weed control at 62.5 g/ha [1, 8] [%] | pest or weed control at 250 g/ha [1, 8] [%] | pest or weed control at 15.625 g/ha [1, 9] [%] | pest or weed control at 62.5 g/ha [1, 9] [%] | pest or weed control at 250 g/ha [1, 9] [%] | Estimated IC50 (ppm) [2] [ppm] | pest or weed control at 15.625 g/ha ([3]; BRAPL) [%] | further results |
| --- | --- | --- | --- | --- | --- | --- | --- | --- | --- | --- | --- | --- | --- | --- | --- | --- | --- | --- | --- | --- | --- |
| O=c1c(-c2c(F)ccc(Cl)c2Cl)c(O)c2nccnc2n1CC(F)F [Compound 2.21] | 0 | 2 | 5 | 0 | 0 | 0 | 0 | 0 | 1 | 0 | 0 | 0 | 0 | 0 | 5 | 0 | 0 | 2 | 64 | 5 | pest or weed control at 62.5 g/ha ([3]; BRAPL): 30%; pest or weed control at 250 g/ha ([3]; BRAPL): 80%; pest or weed control at 15.625 g/ha ([3]; PANMI): 10%; pest or weed control at 62.5 g/ha ([3]; PANMI): 30%; pest or weed control at 250 g/ha ([3]; PANMI): 70%; pest or weed control at 15.625 g/ha ([3]; SIDSP): 5%; pest or weed control at 62.5 g/ha ([3]; SIDSP): 20%; pest or weed control at 250 g/ha ([3]; SIDSP): 40%; pest or weed control at 15.625 g/ha ([3]; Digitaria sanguinalis, DIGSA): 0%; pest or weed control at 62.5 g/ha ([3]; Digitaria sanguinalis, DIGSA): 10%; pest or weed control at 250 g/ha ([3]; Digitaria sanguinalis, DIGSA): 20%; pest or weed control at 15.625 g/ha ([3]; Echinochloa crus-galli, ECHCG): 0%; pest or weed control at 62.5 g/ha ([3]; Echinochloa crus-galli, ECHCG): 10%; pest or weed control at 250 g/ha ([3]; Echinochloa crus-galli, ECHCG): 40%; pest or weed control at 15.625 g/ha ([3]; Setaria faberi, SETFA): 2%; pest or weed control at 62.5 g/ha ([3]; Setaria faberi, SETFA): 20%; pest or weed control at 250 g/ha ([3]; Setaria faberi, SETFA): 60% |
| CC1=NN(C)C(=O)C(c2c(C)cc(C)cc2C)C1=O (centres unmarked) [Compound 6.1] | 0 | 0 | 10 | 0 | 0 | 40 | 0 | 0 | 0 | 0 | 0 | 2 | 0 | 1 | 60 | 0 | 2 | 20 | 63 | 10 | pest or weed control at 62.5 g/ha ([3]; BRAPL): 40%; pest or weed control at 250 g/ha ([3]; BRAPL): 75%; pest or weed control at 15.625 g/ha ([3]; PANMI): 2%; pest or weed control at 62.5 g/ha ([3]; PANMI): 50%; pest or weed control at 250 g/ha ([3]; PANMI): 80%; pest or weed control at 15.625 g/ha ([3]; SIDSP): 5%; pest or weed control at 62.5 g/ha ([3]; SIDSP): 15%; pest or weed control at 250 g/ha ([3]; SIDSP): 20%; pest or weed control at 15.625 g/ha ([3]; Digitaria sanguinalis, DIGSA): 0%; pest or weed control at 62.5 g/ha ([3]; Digitaria sanguinalis, DIGSA): 10%; pest or weed control at 250 g/ha ([3]; Digitaria sanguinalis, DIGSA): 30%; pest or weed control at 15.625 g/ha ([3]; Echinochloa crus-galli, ECHCG): 0%; pest or weed control at 62.5 g/ha ([3]; Echinochloa crus-galli, ECHCG): 5%; pest or weed control at 250 g/ha ([3]; Echinochloa crus-galli, ECHCG): 50%; pest or weed control at 15.625 g/ha ([3]; Setaria faberi, SETFA): 0%; pest or weed control at 62.5 g/ha ([3]; Setaria faberi, SETFA): 20%; pest or weed control at 250 g/ha ([3]; Setaria faberi, SETFA): 70% |

From patent US20110173718A1, “HERBICIDE TOLERANT PLANTS” (SYNGENTA CROP PROTECTION, INC., priority 2008, published 2011)
